Reference: patent US8101212B2, “Bioactive botanical cosmetic compositions and processes for their production” (Akzo Nobel Surface Chemistry LLC, priority 2002, dated 2012)
Converted amounts (≈) assume the structure as drawn.

Legend:
[1] = Superoxide scavenging activity (xanthine oxidase system, cytochrome c reduction); format: biochemical
Source text: Reactive oxygen species generated by activated inflammatory cells (endogenous or exogenous) create specific oxidant which was used to provide the measurements of superoxide scavenging activity. The assay used for evaluation of superoxide scavenging activity relates to the one form of antioxidant activity, which is of benefit in neutralizing the damage associated with oxidation. To generate superoxide anions in high yield and in a controlled fashion, an enzymatic system (xanthine oxidase) was used. The conversion of […] by this enzyme generates amounts of superoxide anions, which are stoichiometric with the amount of substrate provided. The assay used was based on the reduction of cytochrome c from its ferric to ferrous form as a sensitive measure of superoxide levels. […] Method 7: Method for Determination of Superoxide Scavenging Activity. The enzymatic system, which uses xanthine oxidase (a purified enzyme preparation produced by “Sigma”), was used to generate superoxide anions in high yield and in a controlled fashion. The conversion of xanthine to hydroxanthine by this enzyme generates amounts of superoxide anions and reduction of ferricytochrome c to ferrocytochrome c was used as a sensitive measure of superoxide levels. […]

gelatinase B (MMP-9) = biological target: T1, gelatinase B (MMP-9) (Homo sapiens, UniProt P14780); assay: Gelatinase B inhibitory activity (MMP-9 Activity ELISA); format: biochemical
T1 construct: purchased Amersham Pharmacia
T1 sequence (P14780 94-707): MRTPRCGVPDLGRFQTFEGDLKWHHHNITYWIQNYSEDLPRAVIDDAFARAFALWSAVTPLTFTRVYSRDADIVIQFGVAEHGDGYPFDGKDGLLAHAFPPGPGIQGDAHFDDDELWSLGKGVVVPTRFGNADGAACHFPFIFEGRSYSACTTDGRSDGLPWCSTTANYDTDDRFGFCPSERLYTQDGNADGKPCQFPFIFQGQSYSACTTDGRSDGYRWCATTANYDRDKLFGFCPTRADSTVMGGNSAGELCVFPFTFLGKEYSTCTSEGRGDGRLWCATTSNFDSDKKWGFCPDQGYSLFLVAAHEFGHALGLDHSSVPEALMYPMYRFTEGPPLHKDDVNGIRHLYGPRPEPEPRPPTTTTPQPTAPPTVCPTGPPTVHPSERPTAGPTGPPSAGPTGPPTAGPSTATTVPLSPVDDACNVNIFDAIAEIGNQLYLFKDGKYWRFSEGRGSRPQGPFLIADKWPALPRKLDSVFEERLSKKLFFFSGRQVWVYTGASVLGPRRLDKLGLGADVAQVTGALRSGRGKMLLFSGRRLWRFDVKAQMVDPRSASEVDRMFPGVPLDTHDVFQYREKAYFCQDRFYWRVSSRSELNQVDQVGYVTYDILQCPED
Source text: Neutrophils contain two major enzymes from the class of matrix metalloproteinases, which collectively are implicated in extensive connective tissue destruction: neutrophil collagenase (MMP-8) and gelatinase B (MMP-9). Because elastase has poor activity against native collagen, and neutrophil collagenase alone cannot solubilize the connective tissue protein by itself, gelatinase B is considered as a major contributor to inflammatory injury to the extracellular matrix. A specific assay for this enzyme was used to evaluate the potential of cosmetic botanical ingredients to inhibit degradation of the extracellular matrix mediated by inflammatory cell-derived matrix metalloproteinases. Gelatinase B activity was detected by hydrolysis of a low molecular weight synthetic substrate (APMA). Inhibitors of gelatinase B diminish the accelerating rate of enzyme reaction product formation in a dose-dependent fashion. Such enzyme inhibition was found when tested cosmetic ingredients were added to the reaction mixture. Method 6: Method for Determination of Gelatinase B Inhibitory Activity. […] The enzymatic activity was detected at 405 nm by hydrolysis of a low molecular weight synthetic substrate for Gelatinase B: APMA. […]

3T3 fibroblasts = assay: Neutral red uptake (NRU) cytotoxicity test; format: cell-based; set-up: key to Cell Morphology: NCM: Normal Cell Morphology; MLT: Moderate Level of Toxicity
Source text: As an example, a test involving neutral red uptake (NRU) by 3T3 fibroblasts, which is commonly used for determination of cytotoxicity, was utilized to assess cytotoxicity of cosmetic botanical ingredients. The NRU value is proportional to the number of viable cells in this in vitro test population.

Row | Compound | ICR50 ([1]; Table 29) | IC50 (superoxide scavenging activity) ([1]; Tables 35 and 36) | IC50 (gelatinase B (MMP-9)) | inhibition at 100 µg/mL (gelatinase B (MMP-9); read-out: % Inhibition [100 μg/ml]) | NRU50 of positive control (3T3 fibroblasts) | Cell Morphology (3T3 fibroblasts; Table 27) | Cell Morphology (3T3 fibroblasts; Table 28, marigold flower products) | NRU50 (3T3 fibroblasts; Tables 27 and 28)
1 | O=C(/C=C/c1ccc(O)c(O)c1)O[C@H](Cc1ccc(O)c(O)c1)C(=O)O [Rosmarinic Acid, rosmarinic acid] | 26.5 μg Dry Matter/mL | 26.5 µg/mL (≈ 73.5 µM) | 83.3 µM | 91% | – | – | – | –
2 | EGF: Epidermal Growth Factor (EGF) used as a positive control | – | – | – | – | > 2,500 μg/ml | NCM | NCM | >2,500 μg Dry Matter/mL
